# Where a SMILES comes first, the peptide text is derived from it.
# Tests used:
# [1] = test system: HELA cells (Acc57); experiment: Cytotoxicity assay (MTT reduction), HELA cells; type: cell-based; settings: Hela cells
# Method: The cytotoxicity of the peptides to HELA cells (Acc57) and COS-7 cells (CRL-1651) was determined using the MTT reduction assay [see ref. 2 and 3, below]. Briefly the method was as follows: HELA cells and COS-7 cells were seeded at 7.0×10^3 and, respectively, 4.5×10^3 cells per well and grown in 96-well microtiter plates for 24 hours at 37° C. at 5% CO2. At this point, time zero (Tz) was determined by MTT reduction (see below). The supernatant of the remaining wells was discarded, and fresh medium and the peptides in serial dilutions of 12.5, 25 and 50 μM were pipetted into the wells. Each peptide concentration was assayed in triplicate. Incubation of the cells was continued for 48 hours at 37° C. at 5% CO2. Wells were then washed once with phosphate buffered saline (PBS) and subsequently 100 μl MTT reagent (0.5 mg/ml in medium RPMI1640 and, respectively, DMEM) were added to the wells. This was incubated at 37° C. for 2 hours and subsequently the medium was aspirated and 100 μl isopropanol were added to each well. The absorbance at 595 nm of the solubilized product was measured (OD595peptide). For each concentration averages were calculated from triplicates. The percentage of growth was calculated as follows: (OD595peptide-OD595Tz-OD595Empty well)/(OD595Tz-OD595Empty well)×100% and was plotted for each peptide concentration.
# The LC 50 values (Lethal Concentration, defined as the concentration that kills 50% of the cells) were determined for each peptide by using the trend line function of EXCEL (Microsoft Office 2000) for the concentrations (50, 25, 12.5 and 0 μM), the corresponding growth percentages and the value −50, (=TREND(C50:C0,%50:%0,−50)).
# The GI 50 (Growth Inhibition) concentrations were calculated for each peptide by using a trend line function for the concentrations (50, 25, 12.5 and 0 μg/ml), the corresponding percentages and the value 50, (=TREND (C50:C0,%50:%0,50).
# [2] = molecular target: Trypsin, from human pancreas (Homo sapiens, UniProt P07477); experiment: Enzymatic assay, trypsin; settings: at 100 μM
# [3] = molecular target: T1, Chymase, from human skin (Homo sapiens, UniProt P23946); experiment: Enzymatic assay, chymase
# T1 sequence (P23946 22-247): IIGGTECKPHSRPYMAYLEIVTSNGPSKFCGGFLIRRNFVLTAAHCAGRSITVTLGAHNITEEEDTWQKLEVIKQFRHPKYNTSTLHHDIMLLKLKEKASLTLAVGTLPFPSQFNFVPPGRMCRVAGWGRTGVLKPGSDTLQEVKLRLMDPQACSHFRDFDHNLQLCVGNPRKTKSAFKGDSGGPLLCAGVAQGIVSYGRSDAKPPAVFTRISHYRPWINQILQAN
# [4] = molecular target: T2, Elastase from human neutrophils (Homo sapiens, UniProt P08246); experiment: Enzymatic assay, elastase; settings: Elastase IC50
# T2 sequence (P08246 30-267): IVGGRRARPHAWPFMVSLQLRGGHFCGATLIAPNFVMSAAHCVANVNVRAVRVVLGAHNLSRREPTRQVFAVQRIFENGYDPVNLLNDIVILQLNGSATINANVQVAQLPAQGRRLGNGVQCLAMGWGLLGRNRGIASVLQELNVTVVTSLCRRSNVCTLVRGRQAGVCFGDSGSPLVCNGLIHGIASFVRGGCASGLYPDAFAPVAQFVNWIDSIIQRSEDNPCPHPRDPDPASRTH
# [5] = molecular target: Thrombin, from Human Plasma (Homo sapiens, UniProt P00734); experiment: Enzymatic assay, thrombin
# [6] = test system: Tryptase, from human lung; experiment: Enzymatic assay, tryptase; settings: at 100 μM
# [7] = molecular target: Urokinase from human urine (Homo sapiens, UniProt P00749); experiment: Enzymatic assay, urokinase
# [8] = molecular target: T3, CathepsinG, from human neutrophils (Homo sapiens, UniProt P08311); experiment: Enzymatic assay, cathepsin G; settings: Cathepsin G IC50
# T3 sequence (P08311 21-244): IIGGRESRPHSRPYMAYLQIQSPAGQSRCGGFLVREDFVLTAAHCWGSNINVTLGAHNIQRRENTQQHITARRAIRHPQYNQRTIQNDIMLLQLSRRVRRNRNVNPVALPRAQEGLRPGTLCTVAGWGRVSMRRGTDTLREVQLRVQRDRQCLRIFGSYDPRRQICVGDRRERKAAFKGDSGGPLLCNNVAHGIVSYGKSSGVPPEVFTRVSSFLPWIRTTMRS
# [9] = molecular target: Chymotrypsin, from human pancreas (Homo sapiens, UniProt P17538); experiment: Enzymatic assay, chymotrypsin
# [10] = molecular target: Coagulation Factor Xa, from uman plasma (Homo sapiens, UniProt P00742); experiment: Enzymatic assay, coagulation factor Xa
# Chain of Coagulation Factor Xa, from uman plasma (P00742 235-488 limits assumed): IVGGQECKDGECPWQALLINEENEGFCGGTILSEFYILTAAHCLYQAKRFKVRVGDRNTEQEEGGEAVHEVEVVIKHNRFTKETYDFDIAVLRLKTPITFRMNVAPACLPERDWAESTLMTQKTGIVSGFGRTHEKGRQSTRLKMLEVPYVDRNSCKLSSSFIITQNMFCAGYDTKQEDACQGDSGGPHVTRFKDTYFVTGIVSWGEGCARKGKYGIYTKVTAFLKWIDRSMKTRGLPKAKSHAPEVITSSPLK
# Chain of Coagulation Factor Xa, from uman plasma (P00742 41-179 limits assumed): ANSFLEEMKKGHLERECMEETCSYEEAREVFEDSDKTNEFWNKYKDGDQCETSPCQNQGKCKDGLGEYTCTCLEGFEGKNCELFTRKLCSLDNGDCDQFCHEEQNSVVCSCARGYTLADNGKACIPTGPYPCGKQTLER
# Chain of Chymotrypsin, from human pancreas (P17538 19-263): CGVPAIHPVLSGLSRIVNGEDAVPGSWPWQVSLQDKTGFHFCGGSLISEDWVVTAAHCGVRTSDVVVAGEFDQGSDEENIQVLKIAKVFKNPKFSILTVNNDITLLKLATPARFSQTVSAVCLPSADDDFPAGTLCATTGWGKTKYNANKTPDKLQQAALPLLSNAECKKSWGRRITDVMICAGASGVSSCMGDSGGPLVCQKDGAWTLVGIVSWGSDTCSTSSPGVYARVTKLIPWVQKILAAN
smiles,measurement,setting,value
"CCCC[C@@H]1NC(=O)[C@@H]2CCCN2C(=O)[C@H]2CCCN2C(=O)[C@H](Cc2ccccc2Cl)NC(=O)[C@@H]2CSSC[C@H](NC1=O)C(=O)N[C@@H]([C@@H](C)O)C(=O)N[C@@H](C)C(=O)N[C@@H](CO)C(=O)N[C@@H]([C@@H](C)CC)C(=O)N1CCC[C@H]1C(=O)N1CCC[C@H]1C(=O)N[C@@H](CCC(N)=O)C(=O)N2 [Ex. 96] (HELM PEPTIDE1{[Nle].C.T.A.S.I.P.P.Q.C.[O=C([C@H](Cc1ccccc1Cl)N[*:1])[*:2]].[dP].P}$PEPTIDE1,PEPTIDE1,2:R3-10:R3|PEPTIDE1,PEPTIDE1,1:R1-13:R2$$$V2.0)",Cytotoxicity LC50/GI50 Hela cells,[1],52 µM
same,Trypsin at 100 μM %,[2],7.5%
same,Chymase at 100 μM %,[3],0%
same,IC50,[4],0.015 µM
same,Thrombin at 100 μM %,[5],3.6%
same,Tryptase at 100 μM %,[6],0%
same,Urokinase at 100 μM %,[7],6.2%
same,IC50,[8],21.2 µM
same,IC50,[9],15.4 µM
same,FXa at 100 μM %,[10],0%
"CCCC[C@@H]1NC(=O)[C@@H]2CCCN2C(=O)[C@H]2CCCN2C(=O)[C@H](CC2CCCCC2)NC(=O)[C@@H]2CSSC[C@H](NC1=O)C(=O)N[C@@H]([C@@H](C)O)C(=O)N[C@@H](C)C(=O)N[C@@H](CO)C(=O)N[C@@H]([C@@H](C)CC)C(=O)N1CCC[C@H]1C(=O)N1CCC[C@H]1C(=O)N[C@@H](CCC(N)=O)C(=O)N2 [Ex. 97] (HELM PEPTIDE1{[Nle].C.T.A.S.I.P.P.Q.C.[Cha].[dP].P}$PEPTIDE1,PEPTIDE1,2:R3-10:R3|PEPTIDE1,PEPTIDE1,1:R1-13:R2$$$V2.0)",Cytotoxicity LC50/GI50 Hela cells,[1],100 µM
same,Trypsin at 100 μM %,[2],9.5%
same,Chymase at 100 μM %,[3],0%
same,IC50,[4],0.024 µM
same,Thrombin at 100 μM %,[5],11.6%
same,Tryptase at 100 μM %,[6],0%
same,Urokinase at 100 μM %,[7],11.9%
same,IC50,[8],> 100 µM
same,IC50,[9],77.4 µM
same,FXa at 100 μM %,[10],4.8%
"CCCC[C@@H]1NC(=O)[C@@H]2CCCN2C(=O)[C@H]2CCCN2C(=O)[C@H](c2ccccc2)NC(=O)[C@@H]2CSSC[C@H](NC1=O)C(=O)N[C@@H]([C@@H](C)O)C(=O)N[C@@H](C)C(=O)N[C@@H](CO)C(=O)N[C@@H]([C@@H](C)CC)C(=O)N1CCC[C@H]1C(=O)N1CCC[C@H]1C(=O)N[C@@H](CCC(N)=O)C(=O)N2 [Ex. 98] (HELM PEPTIDE1{[Nle].C.T.A.S.I.P.P.Q.C.[Phg].[dP].P}$PEPTIDE1,PEPTIDE1,2:R3-10:R3|PEPTIDE1,PEPTIDE1,1:R1-13:R2$$$V2.0)",Cytotoxicity LC50/GI50 Hela cells,[1],78 µM
same,Trypsin at 100 μM %,[2],0%
same,Chymase at 100 μM %,[3],0%
same,IC50,[4],0.021 µM
same,Thrombin at 100 μM %,[5],5.2%
same,Tryptase at 100 μM %,[6],0%
same,Urokinase at 100 μM %,[7],0%
same,IC50,[8],> 100 µM
same,IC50,[9],38.8 µM
same,FXa at 100 μM %,[10],0%
"CCCCCC[C@@H]1NC(=O)[C@@H]2CCCN2C(=O)[C@H]2CCCN2C(=O)[C@H](Cc2ccc(O)cc2)NC(=O)[C@@H]2CSSC[C@H](NC1=O)C(=O)N[C@@H]([C@@H](C)O)C(=O)N[C@@H](C)C(=O)N[C@@H](CO)C(=O)N[C@@H]([C@@H](C)CC)C(=O)N1CCC[C@H]1C(=O)N1CCC[C@H]1C(=O)N[C@@H](CCC(N)=O)C(=O)N2 [Ex. 99] (HELM PEPTIDE1{[CCCCCC[C@H](N[*:1])C(=O)[*:2]].C.T.A.S.I.P.P.Q.C.Y.[dP].P}$PEPTIDE1,PEPTIDE1,2:R3-10:R3|PEPTIDE1,PEPTIDE1,1:R1-13:R2$$$V2.0)",Cytotoxicity LC50/GI50 Hela cells,[1],58 µM
same,Trypsin at 100 μM %,[2],30.5%
same,Chymase at 100 μM %,[3],0%
same,IC50,[4],0.016 µM
same,Thrombin at 100 μM %,[5],0%
same,Tryptase at 100 μM %,[6],0%
same,Urokinase at 100 μM %,[7],17.4%
same,IC50,[8],85.2 µM
same,IC50,[9],8.56 µM
same,FXa at 100 μM %,[10],0%
"CCCCCCCC[C@@H]1NC(=O)[C@@H]2CCCN2C(=O)[C@H]2CCCN2C(=O)[C@H](Cc2ccc(O)cc2)NC(=O)[C@@H]2CSSC[C@H](NC1=O)C(=O)N[C@@H]([C@@H](C)O)C(=O)N[C@@H](C)C(=O)N[C@@H](CO)C(=O)N[C@@H]([C@@H](C)CC)C(=O)N1CCC[C@H]1C(=O)N1CCC[C@H]1C(=O)N[C@@H](CCC(N)=O)C(=O)N2 [Ex. 102] (HELM PEPTIDE1{[CCCCCCCC[C@H](N[*:1])C(=O)[*:2]].C.T.A.S.I.P.P.Q.C.Y.[dP].P}$PEPTIDE1,PEPTIDE1,2:R3-10:R3|PEPTIDE1,PEPTIDE1,1:R1-13:R2$$$V2.0)",Cytotoxicity LC50/GI50 Hela cells,[1],55 µM
same,Trypsin at 100 μM %,[2],0%
same,Chymase at 100 μM %,[3],0%
same,IC50,[4],0.013 µM
same,Thrombin at 100 μM %,[5],1.7%
same,Tryptase at 100 μM %,[6],0%
same,Urokinase at 100 μM %,[7],0.5%
same,IC50,[8],> 100 µM
same,IC50,[9],4.98 µM
same,FXa at 100 μM %,[10],0%
"CC[C@H](C)[C@@H]1NC(=O)[C@H](CO)NC(=O)[C@H](C)NC(=O)[C@H]([C@@H](C)O)NC(=O)[C@@H]2CSSC[C@H](NC(=O)[C@H](CCC(N)=O)NC(=O)[C@@H]3CCCN3C(=O)[C@@H]3CCCN3C1=O)C(=O)N[C@@H](Cc1ccc(O)cc1)C(=O)N1CCC[C@@H]1C(=O)N1CCC[C@H]1C(=O)N[C@@H](CCc1ccccc1)C(=O)N2 [Ex. 103] (HELM PEPTIDE1{[O=C([C@H](CCc1ccccc1)N[*:1])[*:2]].C.T.A.S.I.P.P.Q.C.Y.[dP].P}$PEPTIDE1,PEPTIDE1,2:R3-10:R3|PEPTIDE1,PEPTIDE1,1:R1-13:R2$$$V2.0)",Cytotoxicity LC50/GI50 Hela cells,[1],47 µM
same,Trypsin at 100 μM %,[2],6.4%
same,Chymase at 100 μM %,[3],0%
same,IC50,[4],0.018 µM
same,Thrombin at 100 μM %,[5],10.2%
same,Tryptase at 100 μM %,[6],0.6%
same,Urokinase at 100 μM %,[7],9.6%
same,IC50,[8],> 100 µM
same,IC50,[9],4.31 µM
same,FXa at 100 μM %,[10],3%
"CCCC[C@@H]1NC(=O)[C@H](Cc2ccccc2)NC(=O)[C@H]2CCCN2C(=O)[C@H](Cc2ccc(O)cc2)NC(=O)[C@@H]2CSSC[C@H](NC1=O)C(=O)N[C@@H]([C@@H](C)O)C(=O)N[C@@H](C)C(=O)N[C@@H](CO)C(=O)N[C@@H]([C@@H](C)CC)C(=O)N1CCC[C@H]1C(=O)N1CCC[C@H]1C(=O)N[C@@H](CCC(N)=O)C(=O)N2 [Ex. 122] (HELM PEPTIDE1{[Nle].C.T.A.S.I.P.P.Q.C.Y.[dP].F}$PEPTIDE1,PEPTIDE1,2:R3-10:R3|PEPTIDE1,PEPTIDE1,1:R1-13:R2$$$V2.0)",Cytotoxicity LC50/GI50 Hela cells,[1],29 µM
same,Trypsin at 100 μM %,[2],19%
same,Chymase at 100 μM %,[3],6.4%
same,IC50,[4],0.018 µM
same,Thrombin at 100 μM %,[5],0%
same,Tryptase at 100 μM %,[6],0.2%
same,Urokinase at 100 μM %,[7],11.1%
same,IC50,[8],35.1 µM
same,IC50,[9],58 µM
same,FXa at 100 μM %,[10],19.6%
